Data: patent US20130224285A1, “ESTROGEN RECEPTOR ALPHA POLYPEPTIDE SEQUENCE, DIAGNOSTIC AND THERAPEUTIC APPLICATIONS THEREOF” (Universite Libre de Buxelles, priority 2010, published 2013)
Residues, ends and D or L forms follow the SMILES beside them. No end group written: not given here. *: point of attachment. Cbz = O=C(OCc1ccccc1)*

Experiments:
MCF-7 cells = assay: Immunoprecipitation (G20 antibody) and Western blot of the endogenous ER-alpha degradation peptide in conditioned medium of treated MCF-7 cells; assay type: cell-based, human; details: conditioned medium of MCF-7 cells; estradiol 10^-8M, diethylstibestrol 10^-8M, 4-OHTamoxifen 10^-7M, Fulvestrant 10^-7M; vs control; FIG. 3; preliminary
Method: MCF-7 breast cancer cell line was cultured for 48 hours in EMEM without Phenol-red, comprising 2 mM glutamine, 100 U/ml penicilline and 100 μg/ml streptomycine, supplemented with 10% steroid-free fetal calf serum. After three washing steps with serum/antibiotic-free EMEM without Phenol-red, the cells were cultured for 4 hours in the presence or absence of the E2 ligand dissolved in serum/antibiotic-free EMEM without Phenol-red, containing only 2 mM glutamine.
After preclearing with 100 μl (50%) immobilised protein G on agarose beads (UltraLink®, Pierce) (2 hours at 4° C.) conditioned media (or EMEM for the negative control) were incubated with antibody G20 (Santa-Cruz) (except for the negative control) overnight at 4° C. After antibody capturing in 100 μl (50%) immobolised proteine G, the resin is heated to 85° C. for 5 minutes in Laemmli without colorant. The protein samples are subsequently separated on a Tris-Tricine 10% (Invitrogen) gel and the peptides are transferred to nitro-cellulose membranes (15% methanol; semi-dry transfer (BioRad apparatus; 24 V; 0.15 mA, 15 minutes). After blocking with 5% milk for 30 minutes, the proteins are detected with chemiluminescence (primary antibody: G20 (1/500; 2 hours); secondary antibody: anti-rabbit (Pierce; 1/6000; 1 hour). […]

proteasome = details: inhibition of the proteasome; Nawaz et al. 1999 and others; cited from earlier work
[1] = test system: MCF-7 breast cancer cell line; assay: MCF-7 cell growth with synthetic peptides, crystal violet staining; assay type: cell-based, human; details: 10^-5M, 72 hours, EMEM with 10% charcoal-stripped serum, vs control, FIG. 4
Method: In order to provide a proof of principle that secretion of the ER-alpha breakdown product/peptide described here could relay or amplify the effect of estradiol toward the proliferation of ER-alpha-positive cells, we have treated MCF-7 cells with a synthetic peptide corresponding to this sequence (SEQ ID NO:2) and containing its post-translational modifications (FIG. 4). ER-alpha-positive MCF-7 breast cancer cell line were seeded in 96-well plates (3000 cells/well). Cells were then treated with or without (control) ER-alpha-17p or the SEQ ID NO:2 peptide both at 10^−5M for 72 hours. Cell growth was measured by crystal violet staining. Briefly, cell cultures were gently washed once with PBS, fixed with 1% glutaraldehyde in PBS (15 min, room temperature) and stained with 0.1% crystal violet (w/v in ddH2O; 30 min, room temperature). After removal of excess dye by rinsing under gently running tap water, cell-bound crystal violet was extracted with 1% Triton X-100 (v/v in ddH2O; room temperature, under agitation) and measured by spectrometry at 550 nm.

ER-alpha = assay: ERE-driven luciferase reporter assay in MVLN cells; assay type: cell-based, human; details: 10^-5M, 6 hours, serum free, FIG. 6, preliminary
Excerpt: In order to provide a proof of principle that secretion of the ER-alpha breakdown product/peptide described here could relay or amplify the effect of estradiol toward ER-alpha transcriptional activity, we have treated MVLN cells (MCF-7 stably transfected with an ERE-driven luciferase reporter gene; Pons et al., Biotechniques 1990; 9:450-459) with a synthetic peptide corresponding to this sequence (SEQ ID NO:2) and containing its post-translational modifications in serum free condition (FIG. 6).
MVLN cells were cultured for 48 hours in EMEM containing 10% of charcoal-stripped serum prior treatment with E2 at 10^−10 M or ER-alpha-17p or SEQ ID NO:2 both at 10^−5M for. After 6 h treatment in serum free condition, cells were washed 2 times with PBS. Luciferase activity was then measured in cell lysates by luminometry using Luciferase Assay System (Promega) according to manufacturer instructions.

ER-alpha receptor = details: competition with synthetic peptide; Gallo et al. 2007; cited from earlier work
[2] = test system: breast cancer cell lines that are ER-alpha-positive; details: Gallo et al. 2007, 2008; cited from earlier work
[3] = biological target: T1, purified recombinant human ER-alpha (Homo sapiens, UniProt P03372); details: Gallo et al. 2007; cited from earlier work
T1 sequence (P03372 1-595): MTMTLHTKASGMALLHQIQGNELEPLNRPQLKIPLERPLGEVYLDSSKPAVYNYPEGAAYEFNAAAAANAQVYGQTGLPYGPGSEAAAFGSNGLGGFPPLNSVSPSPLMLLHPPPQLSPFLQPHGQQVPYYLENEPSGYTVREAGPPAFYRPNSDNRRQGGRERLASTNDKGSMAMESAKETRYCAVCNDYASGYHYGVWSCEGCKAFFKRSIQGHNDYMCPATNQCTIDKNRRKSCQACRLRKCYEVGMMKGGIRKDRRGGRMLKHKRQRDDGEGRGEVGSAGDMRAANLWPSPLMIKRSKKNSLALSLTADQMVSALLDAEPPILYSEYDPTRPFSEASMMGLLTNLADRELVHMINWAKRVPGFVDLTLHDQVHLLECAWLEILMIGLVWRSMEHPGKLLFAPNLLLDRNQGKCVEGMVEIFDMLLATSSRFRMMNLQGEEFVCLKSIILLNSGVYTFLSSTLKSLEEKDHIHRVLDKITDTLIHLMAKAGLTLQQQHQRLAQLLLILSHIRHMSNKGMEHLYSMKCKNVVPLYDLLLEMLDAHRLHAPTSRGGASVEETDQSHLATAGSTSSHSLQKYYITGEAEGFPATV

Compound: CC/C(=C(\c1ccc(O)cc1)c1ccc(OCCN(C)C)cc1)c1ccccc1 [4-OHTamoxifen]
- production of the endogenous ER-alpha degradation product/peptide (MCF-7 cells): decrease its production

Compound: C[C@]12CC[C@@H]3c4ccc(O)cc4C[C@@H](CCCCCCCCC[S+]([O-])CCCC(F)(F)C(F)(F)F)[C@H]3[C@@H]1CC[C@@H]2O (some centres unmarked) [Fulvestrant]
- production of the endogenous ER-alpha degradation product/peptide (MCF-7 cells): decrease its production

Compound: CC(C)C[C@@H](C=O)NC(=O)[C@H](CC(C)C)NC(=O)[C@H](CC(C)C)NC(=O)OCc1ccccc1 [MG-132] (Cbz-Leu-Leu-Leu-aldehyde)
- ER-alpha-dependent transcription (proteasome): diminishes ER-alpha-dependent transcription

Compound: CC(=O)N[C@@H](CSC(=O)[C@]1([C@@H](O)C(C)C)NC(=O)[C@H](C)[C@@H]1O)C(=O)O [lactacystine]
- ER-alpha-dependent transcription (proteasome): diminishes ER-alpha-dependent transcription

Compound: K268RQRDDGEGRGEVGSAGDMRAANLWPSPLMIKRSKKNSLALSLT311 (KRQRDDGEGRGEVGSAGDMRAANLWPSPLMIKRSKKNSLALSLT; listed as Homo Sapiens) [SEQ ID NO:2, endogenous 44-residue ER-alpha degradation peptide K268-T311]
- MCF-7 cell proliferation (growth) ([1]; listed as ER-alpha-44p): capable of inducing proliferation of cancer cells
- MCF-7 cell proliferation (growth) ([1]; listed as SED ID NO:2): significant increase of their proliferation higher that the control ER-alpha-17p peptide
- ER-alpha transcriptional activity (luciferase) (ER-alpha): significant increase of the ER-alpha transcriptional activity higher than the control ER-alpha-17p peptide

Compound: P295LMIKRSKK303NSLALSLT311 (PLMIKRSKK(Me)NSLALSLT; listed as Homo Sapiens) [ER-alpha-17p]
- MCF-7 cell proliferation (growth) [1]: capable of inducing proliferation of cancer cells
- transcriptional activity of the ER-alpha receptor (ER-alpha receptor): increased transcriptional activity
- proliferation of ER-alpha-positive breast cancer cell lines [2]: increased proliferation
- binding to purified recombinant human ER-alpha [3]: binds to purified recombinant human ER-alpha
